Tests used:
Assay in all cases: General post-emergent herbicidal activity, foliar application
Format in all cases: in vivo
[1] = tested on: Zea mays L. (corn); conditions: 336 h, scored after 14 days, read-out: % Visual Growth Reduction ZEAMX; for plant injury at 35 g/ha: 35 g ai/ha; for plant injury at 70 g/ha: 70 g ai/ha; for plant injury at 140 g/ha: 140 g ai/ha; for plant injury at 280 g/ha: 280 g ai/ha
Procedure, shortened: (§1)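 Compounds in acetone/DMSO (97:3) diluted into aqueous spray with isopropanol, Atplus 411F crop oil and Triton X-155; top rate plus 1/2×–1/16× serial rates applied to foliage, solvent blank as control. Greenhouse, sub-irrigated; visual injury versus untreated plants scored 0–100% (100 = complete kill) after 14 days.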

[2] = tested on: Oryza sativa L. (rice); conditions: Oryza sativa, 336 h, scored after 14 days, read-out: % Visual Growth Reduction ORYSA; for plant injury at 35 g/ha: 35 g ai/ha; for plant injury at 70 g/ha: 70 g ai/ha; for plant injury at 140 g/ha: 140 g ai/ha; for plant injury at 280 g/ha: 280 g ai/ha
Procedure, shortened: as §1

[3] = tested on: Helianthus annuus L. (sunflower, common); conditions: for pest or weed control at 35 g/ha / pest or weed control at 70 g/ha / pest or weed control at 140 g/ha / pest or weed control at 280 g/ha: Helianthus annuus, 336 h, foliar post-emergent, scored after 14 days, read-out: % Visual Growth Reduction HELAN; for pest or weed control at 35 g/ha: 35 g ai/ha; for pest or weed control at 70 g/ha: 70 g ai/ha; for pest or weed control at 140 g/ha: 140 g ai/ha; for pest or weed control at 280 g/ha: 280 g ai/ha; for GR80 Value HELAN: calculated by probit analysis, dose for 80% visual injury, may be extrapolated
Procedure, shortened: (§2)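 Compounds in acetone/DMSO (97:3) were diluted into aqueous spray containing isopropyl alcohol, Atplus 411F crop oil and Triton X-155, then applied post-emergence to foliage at a top rate plus 1/2× to 1/16× serial dilutions. Injury was scored visually (0–100%) after 14 days in a sub-irrigated greenhouse versus untreated plants. GR20/GR50/GR80 were derived by probit analysis, with some GR80 values extrapolated from curve slope.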

[4] = tested on: Chenopodium album L. (lambsquarters, common); conditions: for pest or weed control at 35 g/ha / pest or weed control at 70 g/ha / pest or weed control at 140 g/ha / pest or weed control at 280 g/ha: Chenopodium album, 336 h, foliar post-emergent, scored after 14 days, read-out: % Visual Growth Reduction CHEAL; for pest or weed control at 35 g/ha: 35 g ai/ha; for pest or weed control at 70 g/ha: 70 g ai/ha; for pest or weed control at 140 g/ha: 140 g ai/ha; for pest or weed control at 280 g/ha: 280 g ai/ha; for GR80 Value CHEAL: calculated by probit analysis, dose for 80% visual injury, may be extrapolated
Procedure, shortened: as §2

[5] = tested on: Echinochloa crus-galli (L.) Beauv. (barnyardgrass); conditions: for pest or weed control at 35 g/ha / pest or weed control at 70 g/ha / pest or weed control at 140 g/ha / pest or weed control at 280 g/ha: Echinochloa crus-galli, 336 h, foliar post-emergent, scored after 14 days, read-out: % Visual Growth Reduction ECHCG; for pest or weed control at 35 g/ha: 35 g ai/ha; for pest or weed control at 70 g/ha: 70 g ai/ha; for pest or weed control at 140 g/ha: 140 g ai/ha; for pest or weed control at 280 g/ha: 280 g ai/ha; for GR80 Value ECHCG: calculated by probit analysis, dose for 80% visual injury, may be extrapolated
Procedure, shortened: as §2

[6] = tested on: Euphorbia heterophylla L. (poinsettia, wild); conditions: for pest or weed control at 35 g/ha / pest or weed control at 70 g/ha / pest or weed control at 140 g/ha / pest or weed control at 280 g/ha: Euphorbia heterophylla, 336 h, foliar post-emergent, scored after 14 days, read-out: % Visual Growth Reduction EPHHL; for pest or weed control at 35 g/ha: 35 g ai/ha; for pest or weed control at 70 g/ha: 70 g ai/ha; for pest or weed control at 140 g/ha: 140 g ai/ha; for pest or weed control at 280 g/ha: 280 g ai/ha; for GR80 Value EPHHL: calculated by probit analysis, dose for 80% visual injury, may be extrapolated
Procedure, shortened: as §2

[7] = tested on: Viola tricolor L. (pansy); conditions: for pest or weed control at 35 g/ha / pest or weed control at 70 g/ha / pest or weed control at 140 g/ha / pest or weed control at 280 g/ha: Viola tricolor, 336 h, foliar post-emergent, scored after 14 days, read-out: % Visual Growth Reduction VIOTR; for pest or weed control at 35 g/ha: 35 g ai/ha; for pest or weed control at 70 g/ha: 70 g ai/ha; for pest or weed control at 140 g/ha: 140 g ai/ha; for pest or weed control at 280 g/ha: 280 g ai/ha; for GR80 Value VIOTR: calculated by probit analysis, dose for 80% visual injury, may be extrapolated
Procedure, shortened: as §2

[8] = tested on: Amaranthus retroflexus L. (pigweed, redroot); conditions: for pest or weed control at 35 g/ha / pest or weed control at 70 g/ha / pest or weed control at 140 g/ha / pest or weed control at 280 g/ha: Amaranthus retroflexus, 336 h, foliar post-emergent, scored after 14 days, read-out: % Visual Growth Reduction AMARE; for pest or weed control at 35 g/ha: 35 g ai/ha; for pest or weed control at 70 g/ha: 70 g ai/ha; for pest or weed control at 140 g/ha: 140 g ai/ha; for pest or weed control at 280 g/ha: 280 g ai/ha; for GR80 Value AMARE: calculated by probit analysis, dose for 80% visual injury, may be extrapolated
Procedure, shortened: as §2

| SMILES | plant injury at 70 g/ha [1] [%] | plant injury at 140 g/ha [1] [%] | plant injury at 70 g/ha [2] [%] | plant injury at 140 g/ha [2] [%] | pest or weed control at 70 g/ha [3] [%] | pest or weed control at 140 g/ha [3] [%] | GR80 Value HELAN [3] [g ai/ha] | pest or weed control at 70 g/ha [4] [%] | pest or weed control at 140 g/ha [4] [%] | GR80 Value CHEAL [4] [g ai/ha] | pest or weed control at 70 g/ha [5] [%] | pest or weed control at 140 g/ha [5] [%] | GR80 Value ECHCG [5] [g ai/ha] | pest or weed control at 70 g/ha [6] [%] | pest or weed control at 140 g/ha [6] [%] | GR80 Value EPHHL [6] [g ai/ha] | pest or weed control at 70 g/ha [7] [%] | pest or weed control at 140 g/ha [7] [%] | GR80 Value VIOTR [7] [g ai/ha] | pest or weed control at 70 g/ha [8] [%] | further results |
| --- | --- | --- | --- | --- | --- | --- | --- | --- | --- | --- | --- | --- | --- | --- | --- | --- | --- | --- | --- | --- | --- |
| Nc1c(F)c(CF)nc(C(=O)O)c1Cl [Compound F36, 4-Amino-3-chloro-5-fluoro-6-(fluoromethyl)picolinic acid] | 20 | 40 | 10 | 20 | 80 | 85 | 70 | 100 | 100 | 36.1 | 50 | 80 | 132 | 100 | 100 | <17.5 | 20 | 80 | 246 | 100 | plant injury at 35 g/ha [1]: 0%; plant injury at 280 g/ha [1]: 70%; plant injury at 35 g/ha [2]: 0%; plant injury at 280 g/ha [2]: 30%; pest or weed control at 35 g/ha [3]: 70%; pest or weed control at 280 g/ha [3]: 90%; pest or weed control at 35 g/ha [4]: 80%; pest or weed control at 280 g/ha [4]: 100%; pest or weed control at 35 g/ha [5]: 50%; pest or weed control at 280 g/ha [5]: 95%; pest or weed control at 35 g/ha [6]: 100%; pest or weed control at 280 g/ha [6]: 100%; pest or weed control at 35 g/ha [7]: 10%; pest or weed control at 280 g/ha [7]: 75%; pest or weed control at 35 g/ha [8]: 100%; pest or weed control at 140 g/ha [8]: 100%; pest or weed control at 280 g/ha [8]: 100%; GR80 Value AMARE [8]: <17.5 g ai/ha |
| COC(=O)c1nc(C(C)(C)F)cc(N)c1Cl [Compound F9, methyl 4-amino-3-chloro-6-(2-fluoropropan-2-yl)picolinate] | 0 | 15 | 0 | 0 | 50 | 50 | 237 | 70 | 85 | 110 | 0 | 0 | >140 | 85 | 100 | 49.4 | 40 | 30 | >140 | 100 | pest or weed control at 140 g/ha [8]: 100%; GR80 Value AMARE [8]: 13.7 g ai/ha |
| COC(=O)c1nc(C(F)F)cc(N)c1Cl [Compound F12, methyl 4-amino-3-chloro-6-(difluoromethyl)picolinate] | 30 | 60 | 0 | 0 | 100 | 100 | 23.1 | 100 | 100 | <17.5 | 0 | 55 | 249 | 100 | 100 | 29.2 | 100 | 100 | 29.2 | 100 | plant injury at 35 g/ha [1]: 15%; plant injury at 280 g/ha [1]: 70%; plant injury at 35 g/ha [2]: 0%; plant injury at 280 g/ha [2]: 8%; pest or weed control at 35 g/ha [3]: 100%; pest or weed control at 280 g/ha [3]: 100%; pest or weed control at 35 g/ha [4]: 90%; pest or weed control at 280 g/ha [4]: 100%; pest or weed control at 35 g/ha [5]: 0%; pest or weed control at 280 g/ha [5]: 80%; pest or weed control at 35 g/ha [6]: 90%; pest or weed control at 280 g/ha [6]: 100%; pest or weed control at 35 g/ha [7]: 90%; pest or weed control at 280 g/ha [7]: 100%; pest or weed control at 35 g/ha [8]: 80%; pest or weed control at 140 g/ha [8]: 100%; pest or weed control at 280 g/ha [8]: 100%; GR80 Value AMARE [8]: 26.8 g ai/ha |

Source: patent US9603364B2 (Dow AgroSciences LLC, priority 2013, dated 2017)
